# Experimental data taken from article PMC12814486 (Bioorganic & medicinal chemistry, 2025).
# Test: Solubility assay
# Format: physicochemical
# Settings: sodium phosphate buffer, pH 7.4, aqueous buffer, kinetic from dmso stock
structure (smiles),measurement,value
"NC(=O)c1cccc(-c2cccc(OC(=O)NC3CCCCC3)c2)c1 [URB597, reference compound]",solubility,> 63 µM
